Laboratory results published in ChEMBL document CHEMBL4219261, “Discovery of 3(S)-thiomethyl pyrrolidine ERK inhibitors for oncology” (Bioorg Med Chem Lett, 2018).

What was measured:
[1] = target: Mitogen-activated protein kinase 1 (Homo sapiens, UniProt P28482); test: Inhibition of ERK2 (unknown origin)
[2] = Oral bioavailability in rat at 10 mg/kg; type: ADME, organism-based; details: in vivo
[3] = system: HT-29; test: Antiproliferative activity against human HT-29 cells harboring BRAF/KRAS mutant; type: functional, cell-based
[4] = target: T1, Cytochrome P450 3A4 (Homo sapiens, UniProt P08684); test: Inhibition of CYP3A4 (unknown origin) under co-incubation condition; type: ADME
T1 sequence (P08684 whole entry): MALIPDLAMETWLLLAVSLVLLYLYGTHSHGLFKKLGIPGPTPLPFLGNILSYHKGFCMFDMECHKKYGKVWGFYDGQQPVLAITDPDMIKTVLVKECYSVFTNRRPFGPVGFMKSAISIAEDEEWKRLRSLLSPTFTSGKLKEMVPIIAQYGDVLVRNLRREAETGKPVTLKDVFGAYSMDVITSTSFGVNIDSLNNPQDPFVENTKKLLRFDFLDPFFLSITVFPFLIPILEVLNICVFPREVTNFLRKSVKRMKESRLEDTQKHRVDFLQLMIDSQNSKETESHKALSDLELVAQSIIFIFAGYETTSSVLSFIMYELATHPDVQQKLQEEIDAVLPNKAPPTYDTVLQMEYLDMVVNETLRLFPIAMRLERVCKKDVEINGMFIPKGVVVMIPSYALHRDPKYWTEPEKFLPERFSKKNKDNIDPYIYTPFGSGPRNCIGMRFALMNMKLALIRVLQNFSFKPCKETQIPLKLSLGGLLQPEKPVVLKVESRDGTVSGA

[5] = target: hERG (KCNH2) (Homo sapiens, UniProt Q12809); test: Inhibition of human ERG at […] by Rb efflux assay
hERG (KCNH2), sequence (Q12809 whole entry): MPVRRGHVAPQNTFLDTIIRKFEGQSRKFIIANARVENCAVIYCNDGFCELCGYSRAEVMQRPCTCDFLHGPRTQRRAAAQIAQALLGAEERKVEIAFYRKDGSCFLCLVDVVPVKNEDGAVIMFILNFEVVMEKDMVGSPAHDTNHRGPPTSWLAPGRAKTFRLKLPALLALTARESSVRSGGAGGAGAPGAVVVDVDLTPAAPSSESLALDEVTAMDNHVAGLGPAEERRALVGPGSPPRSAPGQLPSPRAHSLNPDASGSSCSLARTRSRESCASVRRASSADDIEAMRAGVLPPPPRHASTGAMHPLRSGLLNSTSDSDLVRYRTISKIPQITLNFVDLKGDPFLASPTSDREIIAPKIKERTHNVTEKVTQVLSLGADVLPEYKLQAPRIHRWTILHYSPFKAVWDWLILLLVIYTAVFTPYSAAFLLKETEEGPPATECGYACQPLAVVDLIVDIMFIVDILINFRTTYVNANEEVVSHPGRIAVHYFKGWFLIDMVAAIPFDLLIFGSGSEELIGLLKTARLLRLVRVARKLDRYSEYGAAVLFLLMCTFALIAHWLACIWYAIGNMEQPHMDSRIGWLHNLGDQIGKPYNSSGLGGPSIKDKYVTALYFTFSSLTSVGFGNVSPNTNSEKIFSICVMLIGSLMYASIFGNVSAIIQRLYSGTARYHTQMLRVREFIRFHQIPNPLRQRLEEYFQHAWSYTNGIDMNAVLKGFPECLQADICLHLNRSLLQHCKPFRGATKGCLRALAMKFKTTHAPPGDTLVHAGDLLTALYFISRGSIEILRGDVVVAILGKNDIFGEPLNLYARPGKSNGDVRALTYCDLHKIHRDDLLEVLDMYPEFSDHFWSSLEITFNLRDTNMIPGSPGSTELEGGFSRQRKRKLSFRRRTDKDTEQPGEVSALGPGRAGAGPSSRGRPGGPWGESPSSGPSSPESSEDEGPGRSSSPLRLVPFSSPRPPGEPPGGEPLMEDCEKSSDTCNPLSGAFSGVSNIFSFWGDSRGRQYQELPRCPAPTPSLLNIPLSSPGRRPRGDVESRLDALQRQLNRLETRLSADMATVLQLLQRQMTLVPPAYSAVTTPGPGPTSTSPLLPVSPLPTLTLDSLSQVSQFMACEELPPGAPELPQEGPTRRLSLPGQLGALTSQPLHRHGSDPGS

[6] = Apparent permeability in human Caco2 cells […]; type: ADME, cell-based; details: Caco-2
[7] = Oral bioavailability in rat at or 10 mg/kg; type: ADME, organism-based; details: in vivo
[8] = target: T1, Cytochrome P450 3A4; test: Inhibition of CYP3A4 (unknown origin) under pre-incubation condition; type: ADME
[9] = system: HT-29; test: Induction of apoptosis in human HT-29 cells harboring BRAF/KRAS mutant by caspase activation assay; type: functional, cell-based
[10] = AUC in rat at 10 mg/kg; type: ADME, organism-based; details: in vivo
[11] = Clearance in dog hepatocytes assessed per million cells; type: ADME, cell-based, Canis lupus familiaris, Hepatocyte
[12] = Clearance in human hepatocytes assessed per million cells; type: ADME, cell-based, Hepatocyte
[13] = AUC in dog at 10 mg/kg, po; type: ADME, organism-based, Canis lupus familiaris; details: in vivo
[14] = Drug metabolism in rat cryopreserved hepatocytes assessed as (R)-1-(2-oxo-2-(4-(4-(pyrimidin-2-yl)phenyl)piperazin-1-yl)ethyl)pyrrolidine-3-carboxylic acid formation at 10 uM up to 4 hrs by LC-ESI/MS/MS analysis; type: ADME, cell-based, Hepatocyte
[15] = Drug metabolism in rat cryopreserved hepatocytes assessed as N-(3-(4-fluorophenyl)-1H-indazol-5-yl)acetamide formation at 10 uM up to 4 hrs by LC-ESI/MS/MS analysis; type: ADME, cell-based, Hepatocyte
[16] = Drug metabolism in human cryopreserved hepatocytes assessed as (R)-1-(2-oxo-2-(4-(4-(pyrimidin-2-yl)phenyl)piperazin-1-yl)ethyl)pyrrolidine-3-carboxylic acid formation at 1 uCi/ml up to 4 hrs by LC-ESI/MS/MS analysis; type: ADME, cell-based, Hepatocyte
[17] = Drug metabolism in human cryopreserved hepatocytes assessed as N-(3-(4-fluorophenyl)-1H-indazol-5-yl)acetamide formation at 1 uCi/ml up to 4 hrs by LC-ESI/MS/MS analysis; type: ADME, cell-based, Hepatocyte
[18] = Drug metabolism in rat bile assessed as amide hydrolysis followed by glucuronidation level 10 mg/kg, iv measured during 0 to 8 hrs post dose by LC-ESI/MS/MS analysis; type: ADME, organism-based; details: in vivo
[19] = Drug metabolism in rat bile assessed as amide hydrolysis followed by glucuronidation level 10 mg/kg, iv measured during 8 to 24 hrs post dose by LC-ESI/MS/MS analysis; type: ADME, organism-based; details: in vivo
[20] = Drug metabolism in rat urine assessed as amide hydrolysis followed by glucuronidation level 10 mg/kg, iv measured during 0 to 8 hrs post dose by LC-ESI/MS/MS analysis; type: ADME, organism-based; details: in vivo
[21] = Drug metabolism in rat urine assessed as amide hydrolysis followed by glucuronidation level 10 mg/kg, iv measured during 8 to 24 hrs post dose by LC-ESI/MS/MS analysis; type: ADME, organism-based; details: in vivo
[22] = Total plasma clearance in rat at 3 mg/kg, iv or 10 mg/kg, po; type: ADME, organism-based
[23] = Half life in rat at 3 mg/kg, iv or 10 mg/kg, po; type: ADME, organism-based; details: in vivo
[24] = MRT in rat at 3 mg/kg, iv or 10 mg/kg, po; type: ADME, organism-based; details: in vivo
[25] = Total plasma clearance in dog at 2 mg/kg, iv or 2 mg/kg dosed via portal vein infusion or 10 mg/kg, po; type: ADME, organism-based, Canis lupus familiaris
[26] = Half life in dog at 2 mg/kg, iv or 2 mg/kg dosed via portal vein infusion or 10 mg/kg, po; type: ADME, organism-based, Canis lupus familiaris; details: in vivo
[27] = MRT in dog at 2 mg/kg, iv or 2 mg/kg dosed via portal vein infusion or 10 mg/kg, po; type: ADME, organism-based, Canis lupus familiaris; details: in vivo
[28] = Oral bioavailability in dog at 10 mg/kg; type: ADME, organism-based, Canis lupus familiaris; details: in vivo
[29] = Drug level in rat cryopreserved hepatocytes treated with (R)-N-(3-(4-fluorophenyl)-1H-indazol-5-yl)-1-(2-oxo-2-(4-(4-(pyrimidin-2-yl)phenyl)piperazin-1-yl)ethyl)pyrrolidine-3-carboxamide at 10 uM up to 4 hrs by LC-ESI/MS/MS analysis; type: ADME, cell-based, Hepatocyte
[30] = Drug level in human cryopreserved hepatocytes treated with [3H]8 at 1 uCi/ml up to 4 hrs by LC-ESI/MS/MS analysis; type: ADME, cell-based, Hepatocyte

Mitogen-activated protein kinase 1, sequence (P28482 whole entry): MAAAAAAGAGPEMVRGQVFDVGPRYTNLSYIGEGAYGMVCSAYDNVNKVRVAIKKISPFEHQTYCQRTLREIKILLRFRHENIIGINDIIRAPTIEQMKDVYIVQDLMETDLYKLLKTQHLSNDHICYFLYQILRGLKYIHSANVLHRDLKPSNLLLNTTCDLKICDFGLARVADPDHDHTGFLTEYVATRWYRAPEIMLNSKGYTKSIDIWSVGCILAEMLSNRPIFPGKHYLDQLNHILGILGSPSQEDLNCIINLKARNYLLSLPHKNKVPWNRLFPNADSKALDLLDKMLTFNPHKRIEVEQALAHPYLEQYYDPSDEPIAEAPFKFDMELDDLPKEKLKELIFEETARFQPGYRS

In the case of CO[C@@]1(C(=O)Nc2ccc3[nH]nc(-c4ccc(F)cc4)c3c2)CCN(CC(=O)N2CCN(c3ccc(-c4ncccn4)cc3)CC2)C1, the IC50 [1] is reported as 2.1 nM.

Compound O=C(Nc1ccc2[nH]nc(-c3ccncc3)c2c1)[C@@H]1CCN(CC(=O)N2CCN(c3ccc(-c4ncccn4)cc3)CC2)C1 has a bioavailability [2] of 0%, an IC50 [3] of 59 nM and an IC50 [4] of 7800 nM. It also gave an inhibition at […] [5] of 12%, a Papp [6] of 4 ×10⁻⁶ cm/s and a bioavailability [7] of 0%. For the same compound, the IC50 [8] was 5700 nM and the IC50 [9] was 96 nM.

Compound O=C(Nc1ccc2[nH]nc(-c3ccc(F)cc3)c2c1)[C@@H]1CCN(CC(=O)N2CC=C(c3ccc(-c4ncccn4)cc3)CC2)C1 has an IC50 [1] of 15.5 nM.

COC[C@@]1(C(=O)Nc2ccc3[nH]nc(-c4ccc(F)cc4)c3c2)CCN(CC(=O)N2CCN(c3ccc(-c4ncccn4)cc3)CC2)C1 showed an IC50 [1] of 25 nM.

With CC(=O)N(C[C@@H]1CCN(CC(=O)N2CCN(c3ccc(-c4ncccn4)cc3)CC2)C1)c1ccc2[nH]nc(-c3ccc(F)cc3)c2c1 the IC50 [1] was 574 nM.

CC[C@@]1(C(=O)Nc2ccc3[nH]nc(-c4ccc(F)cc4)c3c2)CCN(CC(=O)N2CC=C(c3ccc(-c4ncccn4)cc3)CC2)C1 showed an IC50 [1] of 115 nM.

Compound O=C(Nc1ccc2[nH]nc(-c3ccc(F)cc3)c2c1)C1CN(CC(=O)N2CC=C(c3ccc(-c4ncccn4)cc3)CC2)CCS1 (stereo not drawn) has an IC50 [1] of 1310 nM.

Work on CO[C@@]1(C(=O)Nc2ccc3[nH]nc(-c4ccc(F)cc4)c3c2)CCN(CC(=O)N2CC=C(c3ccc(-c4ncccn4)cc3)CC2)C1 yielded an AUC [10] of 1.88 µM·h, an IC50 [1] of 4.8 nM and an IC50 [3] of 88 nM. For the same compound, the IC50 [4] was 31000 nM, the inhibition at […] [5] was 56% and the CLH [11] was 36 µL/min/1e6 cells. For the same compound, the CLH [12] was 33 µL/min/1e6 cells, the AUC [13] was 4.53 µM·h and the IC50 [8] was 2200 nM. It also gave an IC50 [9] of 79 nM.

For CCO[C@@]1(C(=O)Nc2ccc3[nH]nc(-c4ccc(F)cc4)c3c2)CCN(CC(=O)N2CCN(c3ccc(-c4ncccn4)cc3)CC2)C1, the IC50 [1] was 9.7 nM.

Compound O=C(CN1CC[C@@H](CNc2ccc3[nH]nc(-c4ccc(F)cc4)c3c2)C1)N1CCN(c2ccc(-c3ncccn3)cc2)CC1 has an IC50 [1] of 960 nM.

Compound COC[C@@]1(C(=O)Nc2ccc3[nH]nc(-c4ccc(F)cc4)c3c2)CCN(CC(=O)N2CC=C(c3ccc(-c4ncccn4)cc3)CC2)C1 has an IC50 [1] of 41 nM.

Compound O=C(Nc1ccc2[nH]nc(-c3ccc(F)cc3)c2c1)[C@@H]1CCN(CC(=O)N2CCN(c3ccc(-c4ncccn4)cc3)CC2)C1 has an IC50 [1] of 5.5 nM.

CS[C@@]1(C(=O)Nc2ccc3[nH]nc(-c4ccc(F)cc4)c3c2)CCN(CC(=O)N2CCN(c3ccc(-c4ncccn4)cc3)CC2)C1 gave an IC50 [1] of 5.6 nM.

O=C(CN1CC[C@@](CO)(C(=O)Nc2ccc3[nH]nc(-c4ccc(F)cc4)c3c2)C1)N1CC=C(c2ccc(-c3ncccn3)cc2)CC1 showed an IC50 [1] of 14 nM.

For [3H]c1cc(N2CCN(C(=O)CN3CC[C@@H](C(=O)Nc4ccc5[nH]nc(-c6c([3H])cc(F)cc6[3H])c5c4)C3)CC2)cc([3H])c1-c1ncccn1, the Drug metabolism [14] was “Metabolite_Detected”, the Drug metabolism [15] was “Metabolite_Detected” and the Drug metabolism [16] was “Metabolite_Detected”. For the same compound, the Drug metabolism [17] was “Metabolite_Detected”, the Drug metabolism [18] was “Metabolite_Detected” and the Drug metabolism [19] was “Metabolite_Detected”. The Drug metabolism [20] was “Metabolite_Detected” and the Drug metabolism [21] was “Metabolite_Detected”.

Work on CC(C)O[C@@]1(C(=O)Nc2ccc3[nH]nc(-c4ccc(F)cc4)c3c2)CCN(CC(=O)N2CCN(c3ccc(-c4ncccn4)cc3)CC2)C1 yielded an IC50 [1] of 90 nM.

In the case of CS[C@]1(C(=O)Nc2ccc3[nH]nc(-c4ccc(F)cc4)c3c2)CCN(CC(=O)N2CC=C(c3ccc(-c4ncccn4)cc3)CC2)C1, the IC50 [1] is reported as > 3000 nM.

For O=C(CN1CCC(CF)(C(=O)Nc2ccc3[nH]nc(-c4ccc(F)cc4)c3c2)C1)N1CCN(c2ccc(-c3ncccn3)cc2)CC1 (stereo not drawn), the IC50 [1] was 5.8 nM.

In the case of O=C(CN1CCC(Oc2ccccc2)(C(=O)Nc2ccc3[nH]nc(-c4ccc(F)cc4)c3c2)C1)N1CCN(c2ccc(-c3ncccn3)cc2)CC1 (stereo not drawn), the IC50 [1] is reported as > 3000 nM.

Work on O=C(Nc1ccc2[nH]nc(-c3ccc(F)cc3)c2c1)C1CN(CC(=O)N2CC=C(c3ccc(-c4ncccn4)cc3)CC2)CCO1 (stereo not drawn) yielded an IC50 [1] of 119 nM.

CN(C)C1(C(=O)Nc2ccc3[nH]nc(-c4ccc(F)cc4)c3c2)CCN(CC(=O)N2CC=C(c3ccc(-c4ncccn4)cc3)CC2)C1 (stereo not drawn) gave an IC50 [1] of 21 nM.

With CS[C@@]1(C(=O)Nc2ccc3[nH]nc(-c4ccc(F)cc4)c3c2)CCN(CC(=O)N2CC=C(c3ccc(-c4ncccn4)cc3)CC2)C1 the IC50 [1] was 7 nM, the IC50 [4] was > 30000 nM and the inhibition at […] [5] was 8%. The CLH [11] was 18 µL/min/1e6 cells, the CLH [12] was 7 µL/min/1e6 cells and the Papp [6] was 60 ×10⁻⁶ cm/s. For the same compound, the clearance [22] was 8.4 mL/min/kg, the half-life [23] was 2.5 h and the MRT [24] was 2.5 h. The bioavailability [7] was 70%, the AUC [13] was 17.2 µM·h and the clearance [25] was 7.6 mL/min/kg. The half-life [26] was 2 h, the MRT [27] was 5.1 h and the bioavailability [28] was 75%. It also gave an IC50 [8] of 2000 nM and an IC50 [9] of 80 nM.

With CC(=O)Nc1ccc2[nH]nc(-c3ccc(F)cc3)c2c1 the Drug metabolism [29] was “Metabolite_Detected” and the Drug metabolism [30] was “Metabolite_Detected”.

For O=C(CN1CCCC(c2cn(-c3ccc4[nH]nc(-c5ccc(F)cc5)c4c3)nn2)C1)N1CC=C(c2ccc(-c3ncccn3)cc2)CC1 (stereo not drawn), the IC50 [1] was > 1000 nM.

In the case of C[C@@]1(C(=O)Nc2ccc3[nH]nc(-c4ccc(F)cc4)c3c2)CCN(CC(=O)N2CCN(c3ccc(-c4ncccn4)cc3)CC2)C1, the IC50 [1] is reported as 24 nM.

Work on CS(=O)(=O)[C@@]1(C(=O)Nc2ccc3[nH]nc(-c4ccc(F)cc4)c3c2)CCN(CC(=O)N2CC=C(c3ccc(-c4ncccn4)cc3)CC2)C1 yielded an IC50 [1] of 12 nM.

For O=C(O)[C@@H]1CCN(CC(=O)N2CCN(c3ccc(-c4ncccn4)cc3)CC2)C1, the Drug metabolism [29] was “Metabolite_Detected” and the Drug metabolism [30] was “Metabolite_Detected”.
